{"source": "patent US12569532B2", "about": "“Brain function regulating agent, and food or beverage product containing same” (NITTA GELATIN INC., priority 2019, dated 2026)", "key": {"[1]": {"system": "cerebellar granule cells (CGC)", "conditions": "Wistar, rat, 6 days", "description": "(§1) 15 to 25-week-old male and female Wistar rats were provided by purchase from CREA Japan, Inc. Thereafter, the rats were reared under the following conditions: the temperature was 23±2° C., the relative humidity was 55±10%, the lighting cycle was 12 hours, the light period started at 7:00 and ended at 19:00, and the rats were fed with a solid feed (“CE-2” (trade name) manufactured by CREA Japan, Inc) and allowed to freely access drinking water. Under the same conditions as described above, the rats were mated to obtain 7-day-old rats. Further, 3 to 8-day-old Wistar rats were provided by purchase from CREA Japan, Inc.\n(§2) The Wistar rats were reared to the age of 7 to 9 days under the above-described conditions, and cerebella were then excised from these rats, and dispersed by the below-described method using the dispersion solutions shown in Table 4 (liquids I to V). In this way, dispersions containing granule cells and other cerebral nerve cells (hereinafter, these cells are also referred to collectively as “cerebellar granule cells (CGC)”) from the cerebella. The cerebellar granule cells (CGC) are cerebral nerve cells. Thereafter, the CGC contained in the dispersions was cultured. […] The method for preparing the cerebellar granule cells (CGC) is as follows.\n(§3) First, ten of the 7 to 9-day-old rats were decapitated, and cerebella were excised in the clean bench, and then formed into minced paste with a razor after removal of unnecessary tissues, blood vessels, chorionic membranes and the like. Liquid I was added to the paste to give a suspension, and the suspension was centrifuged at 1,000 rpm for 30 seconds to obtain a first separate liquid containing a supernatant and a cell group. The supernatant was removed from the first separate liquid, liquid II pre-warmed to 37° C. in a thermostatic bath was then added to the remaining cell group little by little, and the mixture was stirred, transferred into a 50 mL medium bottle, and further stirred at 37° C. for 15 minutes to perform tissue digestion with trypsin.\n(§4) Next, liquid IV was added to the medium bottle to deactivate the trypsin, and the mixture was centrifuged at 1,000 rpm for 30 seconds to obtain a second separate liquid containing a supernatant and a cell group. The supernatant was removed from the second separate liquid, and a small amount of liquid III was then added to the remaining cell group with a Pasteur pipette to disperse the cell group. Thereafter, the mixture was left standing for 15 minutes to obtain a third separate liquid containing a supernatant and a cell group, and the supernatant was taken into liquid V. To the cell group remaining in the third separate liquid, a small amount of liquid III was added to redisperse the cell group. Thereafter, the mixture was left standing for 5 to 10 minutes to obtain a fourth separate liquid containing a supernatant and a cell group, and the supernatant was taken into liquid V containing the supernatant of the third separate liquid.\n(§5) Liquid V containing the supernatant of the third separate liquid and the supernatant of the fourth separate liquid was centrifuged at 1,000 rpm for 5 minutes to obtain a fifth separate liquid containing a supernatant and a cell group. The supernatant was removed from the fifth separate liquid, a basal medium (BME: Basal Medium Eagle manufactured by Sigma-Aldrich Co. LLC) was then added to the remaining cell group, and the mixture was stirred to obtain a mixed liquid containing cerebellar granule cells (CGC) and BME. Thereafter, the mixed liquid was stained with a trypan Blue solution with a concentration of 0.4 mass %, and the number of the stained cells and the viability thereof were measured."}, "[2]": {"system": "cerebellar granule cells (CGC)", "conditions": "Wistar, rat, 6 days", "remark": "listed apart in the source", "description": "Next, K+5 mM serum (+) BME was added to the mixed liquid in such a manner that the cell density of living cells was 1.2×10^5 cells/mL, and the mixture was suspended to obtain a culture sample. The culture sample was seeded at 0.766 mL per well in a 12-well plate pre-coated with poly-L-lysin (PLL) with a concentration of 50 μg/mL, and was cultured in an incubator environment of CO2 with a concentration of 5 vol % at 37° C.\nOn day 1 after the start of culture, to each well was added cytosine β-D-arabinofuranoside (AraC) to a final concentration of 10 μM for the purpose of suppressing growth of non-neuronal cells while maintaining only CGC. Further, in the below-described control sample, KCl was added to a final concentration of 25 mM. In other samples (samples containing the peptides or amino acids shown in Tables 5 to 7 below), KCl was added with an adjustment made to a final concentration of 15 mM.\nSpecifically, the percent ratio of the number of living cells in each sample to the number of living cells in the control sample having a KCl concentration of 25 mM was determined, and subjected to statistical processing to evaluate significance of the differentiation promoting action on CGC. […]"}, "[3]": {"system": "cerebellar granule cells (CGC)", "experiment": "Evaluation Test 2: viability of primary-cultured CGC by MTT assay (differentiation promoting action)", "conditions": "for Viability (%): KCl 15 mM, MTT day 7, percent of control sample with KCl 25 mM", "description": "as §1, §2, §3, §4, §5"}, "rats": {"system": "rats", "conditions": "when transferred into the cerebrospinal fluid, NPL 2; cited from earlier work"}, "[4]": {"system": "PC12 cells derived from a rat adrenal pheochromocytoma", "conditions": "PTL 2; cited from earlier work"}}, "note": "Where two headings read alike, the source gives them in different places. Where a SMILES comes first, the peptide text is derived from it. [ ]: non-standard residue; d: D form. Hyp = O=C(O)[C@@H]1C[C@@H](O)CN1", "data": [{"compound": "C[C@H](N)C(=O)N1C[C@H](O)C[C@H]1C(=O)O", "note": "[AO] (H-Ala-[Hyp]-OH; N-terminus and C-terminus assumed)", "values": [{"measurement": "Viability (%)", "setting": "[1]; 0.1 μM", "value": 55.1, "unit": "%"}, {"measurement": "Viability (%)", "setting": "[1]; 1 μM", "value": 57.0, "unit": "%"}, {"measurement": "Viability (%)", "setting": "[1]; 10 μM", "value": 66.1, "unit": "%"}, {"measurement": "Viability (%)", "setting": "[1]; 100 μM", "value": 64.7, "unit": "%"}, {"measurement": "Viability (%)", "setting": "[1]; 1000 μM", "value": 65.9, "unit": "%"}]}, {"compound": "O=C(O)CC[C@@H]1NC(=O)[C@@H]2C[C@@H](O)CN2C1=O", "note": "[C-EO]", "values": [{"measurement": "Viability (%)", "setting": "[1]; 0.1 μM", "value": 51.3, "unit": "%"}, {"measurement": "Viability (%)", "setting": "[1]; 1 μM", "value": 52.0, "unit": "%"}, {"measurement": "Viability (%)", "setting": "[1]; 10 μM", "value": 64.8, "unit": "%"}, {"measurement": "Viability (%)", "setting": "[1]; 100 μM", "value": 65.0, "unit": "%"}, {"measurement": "Viability (%)", "setting": "[1]; 1000 μM", "value": 69.3, "unit": "%"}]}, {"compound": "O=C1NCC(=O)N2CCC[C@@H]12", "note": "[C-GP]", "values": [{"measurement": "Viability (%)", "setting": "[1]; 10 μM", "value": 51.2, "unit": "%"}, {"measurement": "Viability (%)", "setting": "[1]; 100 μM", "value": 46.4, "unit": "%"}, {"measurement": "Viability (%)", "setting": "[1]; 1000 μM", "value": 53.3, "unit": "%"}]}, {"compound": "O=C1N[C@@H](Cc2cnc[nH]2)C(=O)N2CCC[C@@H]12", "note": "[C-HP]", "values": [{"measurement": "Viability (%)", "setting": "[1]; 10 μM", "value": 65.1, "unit": "%"}, {"measurement": "Viability (%)", "setting": "[1]; 100 μM", "value": 63.9, "unit": "%"}, {"measurement": "Viability (%)", "setting": "[1]; 1000 μM", "value": 69.2, "unit": "%"}]}, {"compound": "O=C1NCC(=O)N2C[C@H](O)C[C@@H]12", "note": "[C-OG]", "values": [{"measurement": "Viability (%)", "setting": "[1]; 0.1 μM", "value": 57.8, "unit": "%"}, {"measurement": "Viability (%)", "setting": "[1]; 1 μM", "value": 63.2, "unit": "%"}, {"measurement": "Viability (%)", "setting": "[1]; 10 μM", "value": 54.2, "unit": "%"}, {"measurement": "Viability (%)", "setting": "[1]; 100 μM", "value": 50.1, "unit": "%"}, {"measurement": "Viability (%)", "setting": "[1]; 1000 μM", "value": 62.7, "unit": "%"}]}, {"compound": "O=C1[C@@H]2C[C@@H](O)CN2C(=O)[C@@H]2CCCN12", "note": "[C-PO]", "values": [{"measurement": "Viability (%)", "setting": "[1]; 0.1 μM", "value": 55.7, "unit": "%"}, {"measurement": "Viability (%)", "setting": "[1]; 1 μM", "value": 58.4, "unit": "%"}, {"measurement": "Viability (%)", "setting": "[1]; 10 μM", "value": 73.2, "unit": "%"}, {"measurement": "Viability (%)", "setting": "[1]; 100 μM", "value": 70.6, "unit": "%"}, {"measurement": "Viability (%)", "setting": "[1]; 1000 μM", "value": 68.4, "unit": "%"}]}, {"compound": "N[C@@H](CCC(=O)O)C(=O)N1C[C@H](O)C[C@H]1C(=O)NCC(=O)O", "note": "[EOG, Glu-Hyp-Gly] (H-Glu-[Hyp]-Gly-OH; N-terminus and C-terminus assumed)", "values": [{"measurement": "Viability (%)", "setting": "[1]; 0.1 μM", "value": 69.9, "unit": "%"}, {"measurement": "Viability (%)", "setting": "[1]; 100 μM", "value": 74.4, "unit": "%"}, {"measurement": "Viability (%)", "setting": "[1]; 1000 μM", "value": 77.7, "unit": "%"}, {"measurement": "Viability (%)", "setting": "[2]; 3 μM", "value": 67.2, "unit": "%"}, {"measurement": "Viability (%)", "setting": "[2]; 7 μM", "value": 72.7, "unit": "%"}]}, {"compound": "N[C@@H](CCC(=O)O)C(=O)N1C[C@H](O)C[C@H]1C(=O)O", "note": "[EO] (H-Glu-[Hyp]-OH; N-terminus and C-terminus assumed)", "values": [{"measurement": "Viability (%)", "setting": "[1]; 0.1 μM", "value": 52.9, "unit": "%"}, {"measurement": "Viability (%)", "setting": "[1]; 1 μM", "value": 54.8, "unit": "%"}, {"measurement": "Viability (%)", "setting": "[1]; 10 μM", "value": 86.8, "unit": "%"}, {"measurement": "Viability (%)", "setting": "[1]; 100 μM", "value": 81.2, "unit": "%"}, {"measurement": "Viability (%)", "setting": "[1]; 1000 μM", "value": 86.7, "unit": "%"}]}, {"compound": "NCC(=O)N1CCC[C@H]1C(=O)N1C[C@H](O)C[C@H]1C(=O)O", "note": "[GPO] (H-Gly-Pro-[Hyp]-OH)", "values": [{"measurement": "Viability (%)", "setting": "[3]; 0.1 μM added days 1 and 4", "value": 56.3, "unit": "%"}, {"measurement": "Viability (%)", "setting": "[3]; 1 μM added days 1 and 4", "value": 58.4, "unit": "%"}, {"measurement": "Viability (%)", "setting": "[3]; 10 μM added days 1 and 4", "value": 59.0, "unit": "%"}, {"measurement": "Viability (%)", "setting": "[3]; 100 μM added days 1 and 4", "value": 55.8, "unit": "%"}, {"measurement": "Viability (%)", "setting": "[3]; 1000 μM added days 1 and 4", "value": 61.5, "unit": "%"}]}, {"compound": "NCC(=O)N1CCC[C@H]1C(=O)O", "note": "[GP] (H-Gly-Pro-OH; N-terminus and C-terminus assumed)", "values": [{"measurement": "Viability (%)", "setting": "[3]; 0.1 μM added days 1 and 4", "value": 48.4, "unit": "%"}, {"measurement": "Viability (%)", "setting": "[3]; 1 μM added days 1 and 4", "value": 61.2, "unit": "%"}, {"measurement": "Viability (%)", "setting": "[3]; 10 μM added days 1 and 4", "value": 65.7, "unit": "%"}, {"measurement": "Viability (%)", "setting": "[3]; 100 μM added days 1 and 4", "value": 63.4, "unit": "%"}, {"measurement": "Viability (%)", "setting": "[3]; 1000 μM added days 1 and 4", "value": 72.2, "unit": "%"}]}, {"compound": "N[C@@H](CCC(=O)O)C(=O)O", "note": "[Glutamic acid, glutamic acid]", "values": [{"measurement": "viability at 10 µM", "setting": "[3]; Rattus norvegicus, 168 h", "value": 58.1, "unit": "%"}, {"measurement": "viability at 100 µM", "setting": "[3]; Rattus norvegicus, 168 h", "value": 52.4, "unit": "%"}, {"measurement": "viability at 1000 µM", "setting": "[3]; Rattus norvegicus, 168 h", "value": 42.4, "unit": "%"}]}, {"compound": "N[C@@H](CCC(=O)N[C@@H](CS)C(=O)NCC(=O)O)C(=O)O", "note": "[Glutathione, glutathione]", "values": [{"measurement": "Viability (%)", "setting": "[3]; 0.01 μM added days 1 and 4", "value": 73.9, "unit": "%"}, {"measurement": "Viability (%)", "setting": "[3]; 0.1 μM added days 1 and 4", "value": 63.5, "unit": "%"}, {"measurement": "Viability (%)", "setting": "[3]; 1 μM added days 1 and 4", "value": 63.5, "unit": "%"}, {"measurement": "Viability (%)", "setting": "[3]; 10 μM added days 1 and 4", "value": 63.6, "unit": "%"}, {"measurement": "Viability (%)", "setting": "[3]; 100 μM added days 1 and 4", "value": 60.0, "unit": "%"}, {"measurement": "Viability (%)", "setting": "[3]; 1000 μM added days 1 and 4", "value": 67.1, "unit": "%"}]}, {"compound": "CN[C@H](CC(=O)O)C(=O)O", "note": "[NMDA, N-methyl-D-aspartic acid]", "values": [{"measurement": "viability at 100 µM", "setting": "[3]; Rattus norvegicus, 168 h", "value": 93.4, "unit": "%"}]}, {"compound": "O=C(O)CNC(=O)[C@@H]1C[C@@H](O)CN1", "note": "[OG] (H-[Hyp]-Gly-OH)", "values": [{"measurement": "Viability (%)", "setting": "[3]; 0.1 μM added days 1 and 4", "value": 54.5, "unit": "%"}, {"measurement": "Viability (%)", "setting": "[3]; 1 μM added days 1 and 4", "value": 61.8, "unit": "%"}, {"measurement": "Viability (%)", "setting": "[3]; 10 μM added days 1 and 4", "value": 77.6, "unit": "%"}, {"measurement": "Viability (%)", "setting": "[3]; 100 μM added days 1 and 4", "value": 72.8, "unit": "%"}, {"measurement": "Viability (%)", "setting": "[3]; 1000 μM added days 1 and 4", "value": 71.1, "unit": "%"}]}, {"compound": "O=C(O)[C@@H]1C[C@@H](O)CN1C(=O)[C@@H]1CCCN1", "note": "[PO, Pro-Hyp] (H-Pro-[Hyp]-OH; N-terminus and C-terminus assumed)", "values": [{"measurement": "Viability (%)", "setting": "[1]; 0.1 μM", "value": 52.6, "unit": "%"}, {"measurement": "Viability (%)", "setting": "[1]; 1 μM", "value": 51.8, "unit": "%"}, {"measurement": "Viability (%)", "setting": "[1]; 10 μM", "value": 76.3, "unit": "%"}, {"measurement": "Viability (%)", "setting": "[1]; 100 μM", "value": 72.9, "unit": "%"}, {"measurement": "Viability (%)", "setting": "[1]; 1000 μM", "value": 74.0, "unit": "%"}, {"measurement": "antidepressant effect", "setting": "rats", "value": "exhibited an antidepressant effect"}]}, {"compound": "BDNF: brain-derived neurotrophic factor, Reference Example", "values": [{"measurement": "Viability (%)", "setting": "[3]; 100 ng/mL added days 1 and 4", "value": 76.6, "unit": "%"}]}, {"compound": "Gly-Pro-Ala", "values": [{"measurement": "neurogenesis promoting action", "setting": "[4]", "value": "has a neurogenesis promoting action"}]}, {"compound": "IGF-1: listed in Table 5 only, not explained in the text", "values": [{"measurement": "Viability (%)", "setting": "[3]; 100 ng/mL added days 1 and 4", "value": 67.1, "unit": "%"}]}]}
